Results reported in patent publication US5863905A, “2',5'-phosphorothioate/phosphodiester oligoadenylates and anti-viral uses thereof” (Temple University-Of The Commonwealth System of Higher …, priority 1997, dated 1999).
Entries after “also recorded” stand apart in the source; their conditions may differ.

What was measured:
[1] = tested on: serum phosphodiesterases; assay: Stability of 2-5A core derivatives to serum phosphodiesterase; type: in vitro ADME, fetal calf; conditions: 300 μM, 37° C.; for Hydrolysis Products: 10% fetal calf serum, 6 h, identified by HPLC; for % Hydrolysis: RPMI-1640 + 10% fetal calf serum, 6 h (A2, A3: 20 min)
Method: The stability of authentic 2-5A and phosphorothioate/phosphodiester trimer and tetramer core derivatives (300 μM) was determined by incubation in 200 μL of RPMI-1640 medium supplemented with 10% fetal calf serum in 5% CO2 -in-air at 37° C. Aliquots (30 μL) were removed at time zero and 6 hours. The hydrolysis products were identified by HPLC as described in Kariko et al. , Biochemistry 26: 7127-7135 (1987).
No hydrolysis of the phosphorothioate/phosphodiester trimer core derivatives was observed. However, the phosphorothioate/phosphodiester tetramer core derivatives were hydrolyzed from the 5'- or 2',3'-terminus, depending on the location of the phosphorothioate-substituted internucleotide linkage.

[2] = tested on: RNase L; assay: rRNA cleavage assay in L929 cell extracts (activation of RNase L); type: biochemical; conditions: 1 h at 30° C., > = no activation up to this concentration
Method: FIG. 2A represents the results of a ribosomal RNA cleavage assay with 2',5'-phosphorothioate/phosphodiester trimer core 2-5A derivatives. The procedure was performed according to the method of Kariko et al., Biochemistry 26: 7127-7135 (1987). 2-5A oligomer (phosphodiester internucleotide linkage) is also included for comparison. L929 cell extracts were incubated in the absence (lane 1) or presence of p3 A3 at 10^-8 M (lane 2), ARp *ApA at 10^-6 M (lane 3), ASp *ApA at 10^-6 M (lane 4), ApARp *A at 10^-6 M (lane 5), ApASp *A at 10^-6 M (lane 6) or A3 at 10^-6 M (lane 7). The positions of 28S and 18S rRNA are shown; the arrows indicate the positions of the well-characterized specific cleavage products (SCP) of RNase L.
FIG. 2B represents the results of a ribosomal RNA cleavage assay performed according to the method of FIG. 2A with 2',5'-phosphorothioate/phosphodiester trimer 5'-monophosphate derivatives. L929 cell extracts were incubated in the absence (lane 1) or presence of p3 A3 at 2×10^-9 M (lane 2), pA3 at 10^-6 M (lane 3), pARp *ApA at 10^-7 M (lane 4), pASp *ApA at 10^-7 M (lane 5), pApARp *A at 2×10^-9 M (Lane 6), pApASp *A at 10^-7 M (lane 7).
FIG. 3A represents the results of a ribosomal RNA cleavage assay performed according to the method of FIG. 2A with 2',5'-phosphorothioate/phosphodiester tetramer core 2-5A derivatives. 2-5A oligomer (phosphodiester internucleotide linkage) is also included for comparison. L929 cell extracts were incubated in the absence (lane 1) or presence of p3 A4 at 10^-8 M (lane 2), A4 at 10^-5 M (lane 3), ARp *ApApA at 10^-5 M (lane 4), ASp *ApApA at 10^-5 M (lane 5), ApARp *ApA at 10^-5 M (lane 6), ApASp *ApA at 10^-5 M (lane 7), ApApARp *A at 10^-5 M (lane 8) or ApApASp *A at 10^-5 M (lane 9).
FIG. 3B represents the results of a ribosomal RNA cleavage assay performed according to the method of FIG. 2A with 2',5'-phosphorothioate/phosphodiester tetramer 5'-monophosphate derivatives. L929 cell extracts were incubated in the absence (lane 1) or presence of p3 A4 at 10^-8 M (lane 2), pA4 at 10^-6 M (lane 3), pARp *ApApA at 10^-6 M (lane 4), pASp *ApApA at 10^-6 M (lane 5), pApARp *ApA at 10^-8 M (lane 6), pApASp *ApA at 10^-5 M (lane 7), pApApARp *A at 10^-7 M (lane 8) or pApApASp *A at 10^-7 M (lane 9).
Activation of RNase L by the phosphorothioate/phosphodiester trimer and tetramer 2-5A derivatives was also measured in a rRNA cleavage assay using L929 cell extracts according to the method of Kariko et al. (1987), supra, in which extracts of L929 cells were incubated for 1 h at 30° C. in the presence or absence of 2-5A or 2-5A derivative. […] Authentic p3 A3 was active at 1×10^-8 M (FIG. 2A, lane 2). The corresponding 5'-monophosphates, pARp *ApA, pASp *ApA and pApARp *A, activated at 1×10^-7 M, 1×10^-7 M, and 2×10^-9 M, respectively (FIG. 2B, lanes 4-6), as compared with pA3 which was active at 1×10^-6 M (lane 3).

[3] = tested on: HIV-1 strain IIIB; assay: Inhibition of HIV-1-induced syncytia formation (infected centers assay); type: cell-based; conditions: for inhibition of HIV-1-induced syncytia formation: 3×10^-4 M, PBL infected with HIV-1 IIIB, Sup T1 cells, read at 72 h; for inhibition of syncytia formation (in words): 3×10^-4 M (adenosine 9×10^-4 M)
Description: FIG. 5A represents the results of an assay performed according to the method of Henderson et al., Virology 182: 186-198 (1991), indicating the inhibition of HIV-1 (IIIB)-induced syncytia formation by adenosine, 2-5A trimer or tetramer core or 2',5'- phosphorothioate/phosphodiester trimer derivatives: ARp *ApA, ASp *ApA, ApARp *A, ApASp *A, ARp *ApApA, ASp *ApApA, ApARp *ApA, ApASp *ApA, ApApARp *A, ApApASp *A.
FIG. 5B is the results of an assay performed according to the method of FIG. 5A with a 2',5'-phosphorothioate/phosphodiester tetramer derivative of 2-5A core.
The infected centers assay as described by Henderson et al., Virology 182: 186-198 (1991), was used to measure the ability of the phosphorothioate/phosphodiester derivatives of 2-5A trimer and tetramer cores to inhibit HIV-1 induced syncytia formation, an indicator of HIV-1 replication in T cells. Freshly isolated peripheral blood lymphocytes (PBL) were treated with 2-5A or derivatives for 2 h and infected with HIV-1 strain IIIB at a m.o.i. of approximately 0.1. The infected PEL were maintained in RPMI-1640 medium supplemented with 10% (v/v) heat-inactivated fetal calf serum at 37° C. in a humidified 5% CO2 in air atmosphere. After 48 h, the cells were washed twice in Hank's balaned salt solution, serially diluted and seeded into multiple wells of a 96-well microtiter plate. Immediately, 2×10^5 exponentially growing Sup T1 cells were added to each well; Sup T1 cells readily form a syncytium with a cell which is productively infected with HIV-1. The wells were examined daily for the presence of syncytia, using a tissue culture microscope. The first signs of syncytia formation can be seen in 12 h, with some complete syncytia developing by 24 h. Final results were read at 72 h. Each syncytium was counted as a single infected cell. The number of syncytia per seeded cell is determined and expressed as an infected center per infected cell. In the control (no 2-5A derivative added), 100% syncytia formation was equivalent to 12±3 syncytia per 200 HIV-1 infected cells.

[4] = tested on: HIV-1 reverse transcriptase; assay: HIV-1 reverse transcriptase activity in culture supernatant of infected Sup T1 cells; type: cell-based; conditions: 300 μM (adenosine and adenine 900 μM), 6 h pre-treatment, 96 h post-infection; average of triplicates
Method: Sup T1 cells were treated with 2-5A or a phosphorothioate/phosphodiester derivative at 300 μM for 6 hours and then infected with HIV-1 at a multiplicity of infection (M.O.I) of approximately 0.1. Adenosine and adenine were tested at 900 μM. At 96 hours post-infection, culture supernatant was removed and HIV-1 RT activity was assayed in triplicate as described by Henderson et al., Virology 182:186-198 (1991). Briefly in this method, 25 μl of culture supernatant was added to a 50 μl cocktail containing 50 mM Tris (pH 8.0), 20 mM dithiothreitol, 10 mM MgCl2, 60 mM NaCl, 0.05 Nonidet p-40, 5 μg/ml oligodeoxythymidylic acid, 10 μg/ml polyriboadenylic acid, 10 μM deoxythymidine triphosphate and 1 mCi [^32 p]thymidine 5'-triphosphate. The mixture was incubated at 37° C. for 2 hours. Fifty microliters of the cocktail were then spotted onto diethylaminoethyl (DEAE) paper, dried, washed with 2× SSC solution (three times for 10 minutes each time) and 95% ethanol (two times for 5 minutes each time), dried and exposed to radiographic film for 18 to 24 hours at -80° C. The filters were cut and final quantitation was determined by scintillation spectrometry.

[5] = tested on: 2-5A synthetase/RNase L pathway; HHV-6; conditions: CFS patients, cited from earlier work

Adenylyl-(2',5')-(PR) -P-thioadenylyl-(2',5')-adenylyl-(2',5')-adenosine [ApARp *ApA]
Hydrolysis Products [1]: inosine, hypoxanthine; also recorded: ARp *ApA | % Hydrolysis [1]: 50% | concentration at which RNase L is activated to cleave rRNA to SCP [2]: 10000 nM | inhibition of HIV-1-induced syncytia formation [3]: 26% | Percent Inhibition of HIV-1 Reverse Transcriptase [4]: 52%

Adenylyl-(2',5')-(PR)-P-thioadenylyl-(2',5')-adenosine [ApARp *A]
Hydrolysis Products [1]: not hydrolyzed | % Hydrolysis [1]: 0% | concentration at which RNase L is activated to cleave rRNA to SCP [2]: 1000 nM | inhibition of syncytia formation (in words) [3]: most efficient inhibitors of HIV-1 induced syncytia formation | inhibition of HIV-1-induced syncytia formation [3]: 100% | Percent Inhibition of HIV-1 Reverse Transcriptase [4]: 31%

Adenylyl-(2',5')-(PS)-P-thioadenylyl-(2',5')-adenosine [ApASp *A]
Hydrolysis Products [1]: not hydrolyzed | % Hydrolysis [1]: 0% | concentration at which RNase L is activated to cleave rRNA to SCP [2]: > 1000 nM | inhibition of syncytia formation (in words) [3]: most efficient inhibitors of HIV-1 induced syncytia formation | inhibition of HIV-1-induced syncytia formation [3]: 78% | Percent Inhibition of HIV-1 Reverse Transcriptase [4]: 78%

poly (I)-poly (C12 U)
HHV-6 activity following therapy ([5]; p<0.01): significant decrease in HHV-6 activity | mean basal latent 2-5A synthetase level in PBMC extracts following therapy ([5]; controls 2035±325, P<0.001): 610±220 picomoles 2-5A/mg protein/hour | 2-5A synthetase/RNase L pathway following therapy ([5]; in temporal association with clinical and neuropsychological improvement): down regulation of the 2-5A synthetase/RNase L pathway
